In patent US20220395553A1, “CXCR4 ANTAGONIST PEPTIDES” (COHBAR, INC., priority 2019, published 2022):
Square brackets hold non-standard residues; d marks the D form. Peptide text beside a SMILES is read from it.

Columns and labels:
C2C12 Mouse Myoblasts = assay: Glucose utilization in C2C12 mouse myoblasts; type: cell-based; settings: peptide 10 μM, 18-22 hours, relative to 0.1% DMSO treated control cells
Protocol: The effect of the peptides on glucose metabolism can be assessed using an assay of glucose utilization in cultured cultured cells such as mouse myoblasts. Peptides were initially prepared as 10 mM stock in DMSO and used at a final concentration of 10 μM (0.1% DMSO). C2C12 mouse myoblast cell line was purchased from American Type Culture Collection (Manassas, Va.). C2C12 cultures were maintained at 37° C. in a humidified atmosphere of 5% CO2/95% air with medium changes every second day. C2C12 cells were grown in DMEM (1 g/L glucose) supplemented with 10% FBS with 100 IU/ml penicillin and 100 μg/ml streptomycin. C2C12 cells were seeded at 7,000 cells per well on 96-well plates and cultured to confluence. Once the cell reached confluence the media was changed to DMEM (1 g/L glucose) supplemented with 2% HS with 100 IU/ml penicillin and 100 μg/ml streptomycin and maintained at 37° C. in a humidified atmosphere of 5% CO2/95% air, 5 days post-induction of differentiation fresh DMEM (1 g/L glucose) supplemented with 2% HS with 100 IU/ml penicillin and 100 μg/ml streptomycin was added to cultures. Cells were maintained at 37° C. in a humidified atmosphere of 5% CO2 and 95% air for 5 hours. After 5 hours test peptides at 10 μM or controls (0.5 mM or 1 mM metformin in 1% DMSO) prepared in fresh differentiation medium were added to cells and the cultures were maintained at 37° C. in a humidified atmosphere of 5% CO2/95% air for 18-22 hours. At the end of the incubation culture media was removed from the cells and the remaining glucose concentration was measured using a Glucose Assay kit (Abcam) according to the manufacturer's instructions, using a Cytation 3 plate reader at 570 nm (BioTek, Winooski, Vt.). Glucose concentrations in the medium were calculated relative to 0.1% DMSO treated control cells. The relative standard deviation of the result for the 0.1% DMSO treated control was <20%. Metformin was used as a positive control for reduction of glucose levels (increased glucose utilization glucose levels for treatment with metformin (1 mM) treatment were <20% of the 0.1% DMSO treated control value. The results are reported in Table 7.

[1] = test system: SH-SY5Y Neuroblastoma Cells; assay: ATP levels (CellTiter-Glo); type: cell-based, human; settings: peptide 10 μM, 18-20 hours, relative to 0.1% DMSO treated control
Protocol: The effect of the peptides on cellular metabolism can be assessed using an assay of ATP levels in cultured cells such as human neuroblastoma cells. Peptides were initially prepared as 10 mM stock in DMSO and used at a final concentration of 10 μM (0.1% DMSO). […] CellTiter-Glo® Assay kit was purchased from Promega. SH-SY5Y human bone marrow neuroblastoma cell line was purchased from American Type Culture Collection (Manassas, Va.) and licensed from Memorial Sloan-Kettering Cancer Center (New York, N.Y.). SH-SY5Y cells were grown in DMEM/F12 medium supplemented with 10% FBS with 100 IU/ml penicillin and 100 μg/ml streptomycin. Cultures were maintained at 37° C. in a humidified atmosphere of 5% CO2/95% air. SH-SY5Y cells were seeded at 30,000 cells per well on 96-well plates. […] ATP levels were determined using a CellTiter-Glo Assay kit (Promega) according to the manufacturer's instructions. Luminescence for each sample well on the plate was measured using a Cytation 3 plate reader (BioTek, Winooski, Vt.). Activity was calculated relative to 0.1% DMSO treated control. The relative standard deviation of the result for the 0.1% DMSO treated control was <5%.

U937 cells = assay: CXCL12 mediated cell migration, U937 cells; type: cell-based, human; settings: peptides at 10 μM (also stated 1 μM), 100 nM CXCL12, 4 hours
Protocol: Peptides were initially prepared as 1 mM stock in H2O and tested at a final concentration of 1 μM. […] U937 cells were resuspended in serum free media containing 0.5% bovine serum albumin (RPMI+GlutaMax (Gibco/Thermo Fisher Scientific, Gaithersburg, Md.)) at density of 5×10^6 cells/ml. […] Following the 4 hour incubation period the filter inserts were carefully removed and the migration of cells across the filter into the bottom chamber (receiver wells) was determined by measuring ATP levels using Cell TiterGlo 2.0, according to manufacturer's instructions (Promega, Madison, Wis.); luminescence measured using a Cytation 3 plate reader (BioTek, Winooski, Vt.).

[2] = test system: CXCR4/CXCL12 induced p-MEK; assay: CXCR4/CXCL12 induced p-MEK in Jurkat cells (ELISA); type: cell-based, human; settings: 5 nM CXCL12, 5 min
How it was run: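 Jurkat cells in RPMI+GlutaMax containing 10% FBS and 1% penicillin/streptomycin, fresh or conditioned, were resuspended at 2×10^6 cells/ml and […] aliquots placed in tubes. After a 5 min stimulation they were pelleted, rinsed with HBSS and lysed with PMSF and protease/phosphatase inhibitors. Phospho-MEK1 (Ser217/221) was quantified by sandwich ELISA with absorbance read at 450 nm.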

| SMILES | Glucose concentration in medium, Percent of Untreated Control (C2C12 Mouse Myoblasts) [%] | ATP Levels, % Control [1] [%] | Percent Inhibition of CXCL12 Mediated Migration (U937 cells) [%] | Percent Inhibition of CXCR4/CXCL12 Induced p-MEK (100 nM Test Article) [2] [%] | Percent Inhibition of CXCR4/CXCL12 Induced p-MEK (1 μM Test Article) [2] [%] |
| --- | --- | --- | --- | --- | --- |
| CC(C)C[C@H](NC(=O)[C@H](CO)NC(=O)[C@H](CO)NC(=O)[C@H](CCCNC(=N)N)NC(=O)[C@@H](NC(=O)[C@H](CO)NC(=O)[C@H](Cc1c[nH]cn1)NC(=O)[C@H](Cc1c[nH]cn1)NC(=O)[C@H](Cc1ccc(O)cc1)NC(=O)[C@H](CCCNC(=N)N)NC(=O)[C@H](CCC(=O)O)NC(=O)[C@@H](N)CC(C)C)C(C)C)C(=O)N[C@@H](CCCNC(=N)N)C(=O)N1CCC[C@H]1C(=O)N[C@@H](Cc1ccc(O)cc1)C(=O)N[C@H](C(=O)N[C@@H](CCCCN)C(=O)O)[C@@H](C)O [compound 4] (H-LERYHHSVRSSLRPYTK-OH; N-terminus and C-terminus assumed) | 127.8 | 98.5 | 98 | 40 | 76 |
| CC(C)C[C@H](NC(=O)[C@H](CO)NC(=O)[C@H](CO)NC(=O)[C@H](CCCNC(=N)N)NC(=O)[C@@H](NC(=O)[C@H](CO)NC(=O)[C@H](Cc1c[nH]cn1)NC(=O)[C@H](Cc1c[nH]cn1)NC(=O)[C@H](Cc1ccc(O)cc1)NC(=O)[C@H](CCCNC(=N)N)NC(=O)[C@H](CCCNC(=N)N)NC(=O)[C@@H](N)CC(C)C)C(C)C)C(=O)N[C@@H](CCCNC(=N)N)C(=O)N1CCC[C@H]1C(=O)N[C@@H](Cc1ccc(O)cc1)C(=O)N[C@H](C(=O)N[C@@H](CCCCN)C(=O)O)[C@@H](C)O [compound 3] (H-LRRYHHSVRSSLRPYTK-OH; N-terminus and C-terminus assumed) | 125.8 | 102.5 | 101 | 29 | 91 |
| CC(C)C[C@H](NC(=O)[C@H](CO)NC(=O)[C@H](CO)NC(=O)[C@H](CCCNC(=N)N)NC(=O)[C@@H](C)NC(=O)[C@H](CO)NC(=O)[C@H](Cc1c[nH]cn1)NC(=O)[C@H](Cc1c[nH]cn1)NC(=O)[C@H](Cc1ccc(O)cc1)NC(=O)[C@H](CCCNC(=N)N)NC(=O)[C@H](CCC(=O)O)NC(=O)[C@@H](N)CC(C)C)C(=O)N[C@@H](CCCNC(=N)N)C(=O)N1CCC[C@H]1C(=O)N[C@@H](Cc1ccc(O)cc1)C(=O)N[C@H](C(=O)O)[C@@H](C)O [compound 5] (H-LERYHHS[dA]RSSLRPYT-OH; N-terminus and C-terminus assumed) | 128.3 | 97.0 | 86 | −20 | 24 |
| CSCC[C@H](N)C(=O)N[C@@H](CC(C)C)C(=O)N[C@@H](CCCNC(=N)N)C(=O)N[C@@H](CCCNC(=N)N)C(=O)N[C@@H](Cc1ccc(O)cc1)C(=O)N[C@@H](Cc1c[nH]cn1)C(=O)N[C@@H](Cc1c[nH]cn1)C(=O)N[C@@H](CO)C(=O)N[C@H](C(=O)N[C@@H](CCCNC(=N)N)C(=O)N[C@@H](CO)C(=O)N[C@@H](CO)C(=O)N[C@@H](CC(C)C)C(=O)N[C@@H](CCCNC(=N)N)C(=O)N1CCC[C@H]1C(=O)N[C@@H](Cc1ccc(O)cc1)C(=O)N[C@H](C(=O)N[C@@H](CCCCN)C(=O)O)[C@@H](C)O)C(C)C [compound 2] (H-MLRRYHHSVRSSLRPYTK-OH; N-terminus and C-terminus assumed) | 126.7 | 100.1 | 58 | −1 | 28 |
